From PMC4894499 (Journal of pharmaceutical sciences, 2016)
Values belong to the molecule of their own block, whether it stands above or below them.

Assays:
human SCH [1] = conditions: cited from earlier work
P-gp = conditions: human SCH, treatment for 3 days; cited from earlier work
human SCH [2] = conditions: fold greater; cited from earlier work
human SCH [3] = conditions: cited from earlier work; for Effect on total (cell + bile) and cellular accumulation of TCA: concentration-dependent
[4] = Bile acid toxicity: intracellular ATP; format: cell-based, rat; conditions: rat, sandwich-cultured hepatocytes (SCH)
[5] = Bile acid toxicity: intracellular ATP; format: cell-based, human; conditions: human, sandwich-cultured hepatocytes (SCH)
[6] = Bile acid toxicity: LDH release in rat SCH; format: cell-based; conditions: rat, sandwich-cultured hepatocytes (SCH)
[7] = Bile acid toxicity: LDH release in human SCH; format: cell-based; conditions: human, sandwich-cultured hepatocytes (SCH)
rat SCH [8] = conditions: cited from earlier work
human SCH [9] = conditions: cited from earlier work; remark: listed apart in the source
human SCH [10] = test: Intracellular bile acid concentrations by LC-MS/MS in human SCH; format: in vitro ADME; conditions: LCA-treated SCH
CYP3A4 and UGT1A1 = conditions: human SCH; cited from earlier work
rat SCH [11] = test: Bile acid toxicity: intracellular ATP; format: cell-based; conditions: rat SCH, 0 – 0.2 mM LCA, 6, 12, 24 hr
human SCH [12] = test: Bile acid toxicity: intracellular ATP; format: cell-based; conditions: human SCH, 0 – 0.2 mM LCA, 6, 12, 24 hr
rat SCH [13] = test: Bile acid toxicity: LDH release in rat SCH; format: cell-based; conditions: rat SCH, 0 – 0.2 mM LCA, 6, 12, 24 hr
human SCH [14] = test: Bile acid toxicity: LDH release in human SCH; format: cell-based; conditions: human SCH, 0 – 0.2 mM LCA, 6, 12, 24 hr
rat SCH [15] = system: rat SCH
human SCH [16] = conditions: cited from earlier work; remark: listed apart in the source
rat SCH [17] = conditions: cited from earlier work; remark: listed apart in the source

SMILES: CC#C[C@]1(O)CC[C@H]2[C@@H]3CCC4=CC(=O)CCC4=C3[C@@H](c3ccc(N(C)C)cc3)C[C@@]21C [mifepristone]
Effect on canalicular efflux of TCA (human SCH [1]): minimal effects

SMILES: CO[C@H]1/C=C/O[C@@]2(C)Oc3c(C)c(O)c4c(O)c(c(/C=N/N5CCN(C)CC5)c(O)c4c3C2=O)NC(=O)/C(C)=C\C=C\[C@H](C)[C@H](O)[C@@H](C)[C@@H](O)[C@@H](C)[C@H](OC(C)=O)[C@@H]1C [rifampicin]
Effect on BEI of digoxin (P-gp): increase

SMILES: CN(CCOc1ccc(CC2SC(=O)NC2=O)cc1)c1ccccn1 (stereo not shown) [rosiglitazone]
Effect on canalicular efflux of TCA (human SCH [1]): significantly reduced

SMILES: CCCNS(=O)(=O)Nc1ncnc(OCCOc2ncc(Br)cn2)c1-c1ccc(Br)cc1 [macitentan]
Hepatocyte concentration relative to medium concentration (human SCH [2]): about 100 fold | Effect on BEI and apparent biliary clearance of TCA (TCA biliary excretion) (human SCH [3]): significantly decreased | Effect on total (cell + bile) and cellular accumulation of TCA (human SCH [3]): significantly decreased

SMILES: C[C@H](CCC(=O)O)[C@H]1CC[C@H]2[C@@H]3[C@H](O)C[C@@H]4C[C@H](O)CC[C@]4(C)[C@H]3CC[C@]12C [CDCA, chenodeoxycholic acid]
CC50 at 24 h [4]: 351 µM | CC50 at 24 h [5]: 568 µM | CC50 at 24 h [6]: 243 µM | CC50 at 24 h [7]: 972 µM

SMILES: COc1ccc(Cl)cc1C(=O)NCCc1ccc(S(=O)(=O)NC(=O)NC2CCCCC2)cc1 [glyburide]
Effect on canalicular efflux of TCA (human SCH [1]): minimal effects

SMILES: CCCC1O[C@@H]2C[C@H]3[C@@H]4CCC5=CC(=O)C=C[C@]5(C)[C@H]4[C@@H](O)C[C@]3(C)[C@]2(C(=O)CO)O1 (stereo partly shown) [budesonide]
Effect on canalicular efflux of TCA (human SCH [1]): minimal effects

SMILES: Cc1cccc(C)c1OCC(=O)N[C@@H](Cc1ccccc1)[C@@H](O)C[C@H](Cc1ccccc1)NC(=O)[C@H](C(C)C)N1CCCNC1=O [lopinavir]
Effect on TCA biliary excretion (BEI and CLb, app, in vitro) (rat SCH [8]): significantly reduced | Effect on intracellular accumulation of TCA (rat SCH [8]): increased

SMILES: CC(C)(C)NC(=O)[C@@H]1CN(Cc2cccnc2)CCN1C[C@@H](O)C[C@@H](Cc1ccccc1)C(=O)N[C@H]1c2ccccc2C[C@H]1O [indivanir]
Effect on CGamF accumulation (human SCH [9]): potently inhibited

SMILES: COc1ccccc1Oc1c(NS(=O)(=O)c2ccc(C(C)(C)C)cc2)nc(-c2ncccn2)nc1OCCO [bosentan]
Hepatocyte concentration relative to medium concentration (human SCH [2]): 20 fold | Effect on BEI and apparent biliary clearance of TCA (TCA biliary excretion) (human SCH [3]): significantly decreased | Effect on sodium-dependent TCA uptake (human SCH [3]): significantly inhibited | Effect on total (cell + bile) and cellular accumulation of TCA (human SCH [3]): significantly decreased

SMILES: C[C@H](CCC(=O)NCC(=O)O)[C@H]1CC[C@H]2[C@@H]3CC[C@@H]4C[C@H](O)CC[C@]4(C)[C@H]3CC[C@]12C [GLCA, glycolithocholic acid]
Intracellular concentration in human SCH compared with rat SCH (human SCH [10]): comparable

SMILES: CO[C@H]1/C=C/O[C@@]2(C)Oc3c(C)c(O)c4c(O)c(cc(O)c4c3C2=O)NC(=O)/C(C)=C\C=C\[C@H](C)[C@H](O)[C@@H](C)[C@@H](O)[C@@H](C)[C@H](OC(C)=O)[C@@H]1C [rifamycin SV]
Effect on intracellular accumulation of buprenorphine and midazolam (CYP3A4 and UGT1A1): increased

SMILES: C[C@H](CCC(=O)O)[C@H]1CC[C@H]2[C@@H]3CC[C@@H]4C[C@H](O)CC[C@]4(C)[C@H]3CC[C@]12C [LCA, lithocholic acid]
CC50 at 24 h [4]: 147 µM | Effect on cellular ATP (rat SCH [11]): concentration-dependent decrease | CC50 at 24 h [5]: 155 µM | Effect on cellular ATP (human SCH [12]): delayed decrease | CC50 at 24 h [6]: 146 µM | LDH leakage (rat SCH [13]): increase | LDH leakage (human SCH [14]): minimal | Intracellular concentration in human SCH compared with rat SCH (human SCH [10]): comparable

Cellular concentration relative to CDCA, fold lower (rat SCH [15]): ~ 100 fold
SMILES: C[C@H](CCC(=O)NCCS(=O)(=O)O)[C@H]1CC[C@H]2[C@@H]3[C@H](O)C[C@@H]4C[C@H](O)CC[C@]4(C)[C@H]3CC[C@]12C [TCDCA, taurochenodeoxycholic acid]

Intracellular concentration in human SCH relative to rat SCH, fold lower (human SCH [10]): ~ 100 fold
SMILES: C[C@H](CCC(=O)NCCS(=O)(=O)O)[C@H]1CC[C@H]2[C@@H]3CC[C@@H]4C[C@H](O)CC[C@]4(C)[C@H]3CC[C@]12C [TLCA, taurolithocholic acid]

SMILES: CC(C)CN(C[C@@H](O)[C@H](Cc1ccccc1)NC(=O)O[C@H]1CO[C@H]2OCC[C@H]21)S(=O)(=O)c1ccc(N)cc1 [darunavir]
Effect on CGamF accumulation (human SCH [9]): potently inhibited

SMILES: Cc1cc2c(cc1CC(=O)c1sccc1S(=O)(=O)Nc1onc(C)c1Cl)OCO2 [sitaxsentan]
Hepatocyte concentration relative to medium concentration (human SCH [2]): 40 fold | Effect on sodium-dependent TCA uptake (human SCH [3]): significantly inhibited

SMILES: CC(C)c1nc(CN(C)C(=O)N[C@H](C(=O)N[C@@H](Cc2ccccc2)C[C@H](O)[C@H](Cc2ccccc2)NC(=O)OCc2cncs2)C(C)C)cs1 [ritonavir]
Effect on TCA biliary excretion (BEI and CLb, app, in vitro) (rat SCH [8]): significantly reduced | Effect on intracellular accumulation of TCA (rat SCH [8]): increased | Effect on canalicular efflux of TCA (human SCH [1]): significantly reduced | Effect on 99mTc–mebrofenin uptake (human SCH [16]): decreased | Effect on BEI of 99mTc–mebrofenin (human SCH [16]): without changing

SMILES: COC(c1ccccc1)(c1ccccc1)[C@H](Oc1nc(C)cc(C)n1)C(=O)O [ambrisentan]
Hepatocyte concentration relative to medium concentration (human SCH [2]): 2 fold | Effect on BEI and apparent biliary clearance of TCA (TCA biliary excretion) (human SCH [3]): minimal inhibitory effects

SMILES: COC(=O)N[C@H](C(=O)N[C@@H](Cc1ccccc1)[C@@H](O)CN(Cc1ccc(-c2ccccn2)cc1)NC(=O)[C@@H](NC(=O)OC)C(C)(C)C)C(C)(C)C [atazanavir]
Effect on CGamF accumulation (human SCH [9]): potently inhibited

SMILES: COC(=O)C1=C(C)NC(C)=C(C(=O)OC(C)C)C1c1cccc2nonc12 (stereo not shown) [isradipine]
Effect on canalicular efflux of TCA (human SCH [1]): minimal effects

SMILES: Cc1c(C)c2c(c(C)c1O)CCC(C)(COc1ccc(CC3SC(=O)NC3=O)cc1)O2 (stereo not shown) [TGZ, troglitazone]
Effect on canalicular efflux of TCA (human SCH [1]): significantly reduced | Effect on CDCA accumulation in hepatocytes (rat SCH [17]): increased | Effect on cellular accumulation of TCA (rat SCH [17]): decreased
